# Measured values reported in patent US11033473B2, “Hair restoration/growth stimulating agent” (Kinjirushi Co., Ltd., priority 2015, dated 2021).
# Like-named read-outs stand apart in the source and are kept apart here.
# Key:
# [1] = tested on: human hair follicle dermal papilla cells; assay: Evaluation of human hair follicle dermal papilla cell-activating action (Living Cell Count Reagent SF, ABS/hr); format: cell-based; conditions: for cell-activating action vs 0.1% DMSO experimental section: 100 μmol/L
# Description: After one-day culturing in the carbon dioxide incubator, the cells were transferred to a follicle dermal papilla cell proliferation medium in which isosaponarin was dissolved at final concentrations of 0.1 μmol/L, 10 μmol/L, and 1000 μmol/L. Then, the cells were cultured for one day and three days, and proliferation of each cell was compared using Living Cell Count Reagent SF. After the one-day and three-day culturing were completed, the supernatant culture was removed, and the cells were washed with PBS. After washing with PBS, a medium containing 10% Living Cell Count Reagent SF at 300 μL/well was added. The culture supernatant at 100 μL/well was transferred to another 96-well plate 30 and 90 minutes after the addition. Absorbance was measured at a microplate reader (measuring wavelength 450 nm, reference wavelength 595 nm). […] The experiment was carried out five times. A non-addition control section was used as a comparison control section of isosaponarin.
# As a positive control, the same test was carried out also for the case of adding adenosine (Cat. No. 016-10493, distributed by Wako Pure Chemical Industries, Ltd.) at final concentration of 100 μmol/L and minoxidil (Cat. No. M4145-25MG, distributed by Sigma-Aldrich Japan Co., Ltd.) at final concentration of 30 μmol/L. Adenosine was dissolved in dimethyl sulfoxide (DMSO) and added to a test medium at final concentration of 0.1% DMSO. As a solvent control, 0.1% DMSO experimental section was provided. Minoxidil was dissolved in ethanol and added to a test medium at final concentration of 0.1% ethanol. […] Thus, a non-addition control section was used for a comparison control section of minoxidil.
# Significance test was performed in the comparison experimental section. The test was carried out as Student T-test. It is determined that there is significance when P<0.05 (less than 5% if null hypothesis is true), as described in the figures.
# A 100 mmol/L stock solution of adenosine (positive control substance) was prepared using DMSO as a solvent, and added to a test medium at final concentration of 100 μmol/L (0.1% DMSO experimental section was used as a solvent control). A 15 mmol/L stock solution of minoxidil was prepared with 50% ethanol, and added to a test medium at final concentration of 30 μmol/L. Since solvent (ethanol) concentration in this case is 0.2%, 0.2% ethanol experimental section was used as the control section.
# Since the concentration of the solvent in the highest concentration of each test substance is 0.1% or less, it is determined that there is no influence of the solvent in the present test, and a non-addition control section was used as a reference in comparison of significant difference. The test was conducted as a Student T-test.
# (§1) Thereafter, the cells were cultured for three days, and proliferation of each cell is compared using Living Cell Count Reagent SF. The experiment was carried out five times. After three-days culturing was completed, supernatant liquid of the culture was collected and a VEGF production amount of the supernatant was measured by ELISA kit as in Example 2.
# Further, the supernatant was removed. The cells were washed with PBS, and a medium containing 10% Living Cell Count Reagent SF (300 μL/well) was then added. 100 μL per well of the culture supernatant 30 and 90 minutes after the addition was transferred to another 96-well plate and absorbance was measured with a microplate reader (measuring wavelength 450 nm, reference wavelength 595 nm).
# VEGF = VEGF production promoting action in human hair follicle dermal papilla cells (ELISA of culture supernatant); format: cell-based
# Description: An amount of VEGF in a culture supernatant treated with isosaponarin for three days on human hair follicle dermal papilla cells was measured using ELISA kit for (product name: Human VEGF Quantikine ELISA, Cat. No. DVE00, distributed by R&D Systems, Inc.) The supernatant at the time of three-day culturing in the above section (1-3) was used as the culture supernatant treated with isosaponarin for three days. Specifically, in the above section (1-3), in order to measure absorbance, the culture supernatant was removed three days after addition of isosaponarin. In an evaluation test of VEGF production promoting action, the culture supernatant was collected three days after the addition of isosaponarin, and the supernatant was used as a sample. The experiment was carried out five times.
# Hereinafter, a method of measuring VEGF will be described in detail. For the measurement of VEGF, the stock solution was used without diluting the supernatant.
# Procedure 1-1. On the basis of a VEGF standard stock solution (2000 pg/mL), VEGF standard solutions of 1000, 500, 250, 125, 62.5, 31.2, and 15.6 pg/mL were prepared using a reaction buffer.
# Procedure 1-2. Each of the VEGF standard solutions and 200 μL of sample (culture supernatant) were added to a VEGF immobilized microplate in which 50 μL of dilution was added to each well, and allowed to react at room temperature for 2 hours (primary reaction).
# Procedure 1-3. The solutions in the wells were removed and the wells were washed 3 times with washing solution.
# Procedure 1-4. 200 μL of horseradish peroxidase-conjugated VEGF antibody solution was added to each well and allowed to react for 2 hours at room temperature (secondary reaction).
# Procedure 1-5. The solutions in the wells were removed and the wells were washed 3 times with the washing solution.
# Procedure 1-6. 200 μL of substrate solution was added to each well and allowed to react for 20 minutes at room temperature.
# Procedure 1-7. 50 μL of reaction stop solution was added to each well. After one minute mixing in a plate mixer, absorbance of each well was measured with a plate reader (measuring wavelength 450 nm).
# Procedure 1-8. From a standard curve, VEGF concentration in the sample was calculated.
# A non-addition control section was used as a comparison control section of isosaponarin.
# As a positive control, the same experiment was performed to the case of adding minoxidil having final concentration of 30 μmol/L as well. A non-addition control section was used as a comparison control section of minoxidil.
# as §1
# FGF-7 gene = FGF-7 gene expression in human hair follicle dermal papilla cells (real-time PCR); format: cell-based; conditions: cultured for two hours
# Description: Then, the cells are cultured for two hours, and total RNA was recovered and reverse transcribed into cDNA. Thereafter, FGF-7 gene expression was measured by real-time PCR. Using GAPDH gene as an internal reference, FGF-7 gene expression was calculated as a relative value of the negative control section. The experiment was carried out three times. Details of each procedure are shown below.
# First, collection of total RNA from the cells and cDNA synthesis were carried out according to the steps of FastLane Cell RT-PCR kit.
# Step 7-1. 500 μL per well of buffer FCW was added to the cells washed with PBS, and the buffer FCW was immediately removed and aspirated.
# Step 7-2. 200 μL per well of the buffer FCP was added. After incubation for 5 minutes at room temperature (25° C.), FastLane lysate was transferred to a 96-well PCR tube. The tube was stored at −80° C. until the next cDNA synthesis.
# Step 7-3. Lysate in Step 7-2 was dissolved at room temperature. 2 μL of gDNA Wipeout Buffer, 1μL of FastLane lysate and 11 μL of RNase-free water were added to a new PCR tube, caused to react for 5 minutes at 42° C., and then transferred immediately to ice. (In fact, an appropriate amount of master mix of gDNA Wipeout Buffer and RNase-free water was added to the tube containing lysate.)
# Step 7-4. 6 μL of the reverse transcription reaction master mix was added to 14 μL of reaction solution obtained in Step 7-3 and incubated for 30 minutes at 42° C. (1 μL of Quantiscript Reverse Transcriptase, 4 μL of Quantiscript RT Buffer, 1 μL of RT Primer Mix/tube).
# Step 7-5. The reaction solution was treated for 3 minutes at 95° C., to inactivate the reverse transcriptase. […]
# The relative expression level of each gene was calculated as follows. From an intersection of an amplification curve of each gene and a threshold line of each gene, a Ct value (the number of PCR cycles) was calculated. ΔCt value is obtained by subtracting a Ct value of the internal reference GAPDH gene from a Ct value of the target gene (Ct values (target gene)−Ct (GAPDH2)=ΔCt value). […]
# [2] = tested on: human hair follicle dermal papilla cells; assay: Evaluation of human hair follicle dermal papilla cell-activating action (Living Cell Count Reagent SF, ABS/hr); format: cell-based; conditions: Example 7, three days
# [3] = tested on: human hair follicle dermal papilla cells; assay: Cytotoxicity test using human hair follicle dermal papilla cells; conditions: three-day culture; for concentration showing toxicity to human hair follicle dermal papilla cells: FIGS. 5-7
# Description: (§2) Human hair follicle dermal papilla cells (Cat. No. CA60205a, Lot No. 2548, derived from person, distributed by Toyobo Co., Ltd.), which are widely used in efficacy evaluation of a hair restoration agent, were used as test cells. The human hair follicle dermal papilla cells were cultured in a carbon dioxide incubator (5% CO2, 37° C.) using a follicle dermal papilla cell proliferation medium (Cat. No. TMTPGM-250, distributed by Toyobo Co., Ltd.) A flask used for the culture was coated with collagen I before use. For cell passage, cells were separated from the flask using a follicle dermal papilla cell dedicated subculture set (Cat. No. CA090K, distributed by Toyobo Co., Ltd.)
# (§3) The human hair follicle dermal papilla cells were seeded in a collagen I-coated 96-well plate at 5×10^3 cells/well (0.1 mL/well in this test). After one-day culturing (50% confluent) in the carbon dioxide incubator (5% CO2, 37° C.), the cells were transferred to a test medium containing isosaponarin, and then cultured for three days. Cell proliferation was compared using Living Cell Count Reagent SF (Cat. No. 07553, distributed by Nacalai Tesque, Inc.) In consideration of possible influence on absorbance by precipitates adhering to the cells in absorbance measurement in living cell count, the culture supernatant was removed after the end of the three-day culturing, and the cells were washed with a phosphate-buffered saline (PBS). After washing with PBS, 100pL per well of a medium containing 10% of Living Cell Count Reagent SF was added. Absorbance (measurement wavelength 450 nm, reference wavelength 595 nm) of the culture supernatant was measured 30 minutes and 90 minutes after the addition. An amount of change (ABS/hr) in absorbance ABS per hour was calculated from values at 90 minutes and 30 minutes. The experiment was carried out three times.
# [4] = tested on: human hair follicle dermal papilla cells
# Description: as §2, §3
# [5] = Example 7, 0.1 μmol/L, three days
compound,measurement,setting,value
"Nc1ncnc2c1ncn2[C@@H]1O[C@H](CO)[C@@H](O)[C@H]1O [adenosine, reference compound]",cell-activating action vs 0.1% DMSO experimental section,"[1]; Example 1, three-day processing period",more significant cell-activating action
same,cell-activating action vs 0.1% DMSO experimental section,"[1]; Example 7, three days, FIG. 8",more significant cell-activating action
same,amount of VEGF vs 0.1% DMSO experimental section,"VEGF; Example 7, 100 μmol/L, three days, FIG. 9",significantly increased the amount of VEGF on human hair follicle dermal papilla cell slightly more
same,FGF-7 gene expression vs 0.1% DMSO experimental section,"FGF-7 gene; 100 μmol/L, FIG. 10",more significantly elevated FGF-7 gene expression
"O=c1cc(-c2ccc(O)cc2)oc2cc(O)cc(O)c12 [apigenin, 2-(4-hydroxyphenyl)-5-hydroxy-7-hydroxy-4H-1-benzopyran-4-one]",amount of VEGF vs non-addition control section,"VEGF; Example 7, 0.001 μmol/L to 0.01 μmol/L, three days, FIG. 9",increased more significantly
same,amount of VEGF vs non-addition control section,VEGF; [5],no significance
same,cell-activating action vs non-addition control section,"[2]; 0.001 μmol/L to 1 μmol/L, FIG. 8",more significant cell-activating action
same,cell-activating action vs non-addition control section,[2]; 10 μmol/L,no significance
same,concentration showing toxicity to human hair follicle dermal papilla cells,[3],≥ 80 µM
COC(=O)/C=C/c1ccc(O)c(O)c1 [caffeic acid methyl ester],amount of VEGF vs non-addition control section,VEGF; [5],did not show any significance
same,amount of VEGF vs non-addition control section,"VEGF; Example 7, 1 μmol/L, three days, FIG. 9",increased more significantly
same,amount of VEGF vs non-addition control section,"VEGF; Example 7, 10 μmol/L, three days",did not show any significance
same,concentration showing toxicity to human hair follicle dermal papilla cells,[3],≥ 16 µM
"O=c1cc(-c2ccc(O[C@@H]3O[C@H](CO)[C@@H](O)[C@H](O)[C@H]3O)cc2)oc2cc(O)c([C@@H]3O[C@H](CO)[C@@H](O)[C@H](O)[C@H]3O)c(O)c12 [isosaponarin, 4′-(β-D-glucopyranosyloxy)-5,7-dihydroxy-6-β-D-glucopyranosylflavone]",cell-activating action vs non-addition control section,"[1]; Example 1, 0.1 μmol/L to 1000 μmol/L, one-day processing period, FIG. 2",slightly more significant cell-activating action
same,cell-activating action vs non-addition control section,"[1]; Example 1, 0.1 μmol/L to 1000 μmol/L, three-day processing period, FIG. 3",more significant cell-activating action
same,cell-activating action relative to the action in the case of treating with minoxidil,"[1]; Example 1, three-day processing period, minoxidil 30 μmol/L",about three times
same,amount of VEGF vs non-addition control section,"VEGF; Example 2, 1000 μmol/L, treated for three days, FIG. 4",significantly increased
same,concentration showing no toxicity to human hair follicle dermal papilla cells,[3]; FIG. 1,≤ 1000 µM
"Nc1cc(N2CCCCC2)nc(N)[n+]1[O-] [minoxidil, 6-(1-piperidinyl)-2,4-pyrimidinediamine-3-oxide, reference compound]",cell-activating action vs non-addition control section,"[1]; Example 1, 30 μmol/L, one-day processing period",slightly more significant cell-activating action
same,cell-activating action vs non-addition control section,"[1]; Example 1, 30 μmol/L, three-day processing period",more significant cell-activating action
same,amount of VEGF vs non-addition control section,"VEGF; Example 2, 30 μmol/L, treated for three days, FIG. 4",significantly increased
same,amount of VEGF vs 0.2% ethanol experimental section,"VEGF; Example 7, 30 μmol/L, three days, FIG. 9",more significantly increased
same,cell-activating action vs 0.2% ethanol experimental section,"[2]; 30 μmol/L, FIG. 8",more significant cell-activating action
coumaric acid,cell-activating action vs non-addition control section,[2]; 0.01 μmol/L,did not show significance
same,cell-activating action vs non-addition control section,"[2]; 0.1 μmol/L, FIG. 8",more significant cell-activating action
same,cell-activating action vs non-addition control section,[2]; 10 μmol/L,did not show significance
same,FGF-7 gene expression vs non-addition control section,"FGF-7 gene; 0.001 μmol/L, FIG. 10",more significantly elevated
same,FGF-7 gene expression vs non-addition control section,FGF-7 gene; 0.01 μmol/L,did not show any significance
same,concentration showing toxicity to human hair follicle dermal papilla cells,[4],≥ 2000 µM
